Reference: article PMC9945734 (BMC Medicine, 2023)
Read-outs that look alike come from different tables or passages of the source.

System: PC-3-KQ cells
Experiment: 3D spheroid invasion assay and screening of FDA-approved drugs
Type: cell-based, human
Conditions: compared to vehicle control; for activity at 0.01 µM / activity at 0.1 µM / activity at 1 µM / activity at 10 µM: Homo sapiens, 72 h, read-out: Invasion rates (%) of each drug’s multiple concentrations
Description: The invasion assay was performed as previously described. […] The plates were then centrifuged at 320 g for 4 min to cluster cells in the bottom of wells and incubated for 3 days. On the fourth day, 40 μL medium was removed from each well, 40 μL of the matrigel-medium mixture was added to each well, and cells were cultured for another 3 days. […] At the end of the incubation, images were taken using a phase contrast microscope (Eclipse Ti2, Nikon, Tokyo, Japan) with 10× object lenses, and the total area of cells and the core sphere area of cells (Fig. 1a) were measured using the Image J software. The invading area was calculated using the following formula: invasion area = total area of cells – core sphere area.
For drug screening, drugs were added to the matrigel-medium mixture when replacing the culture medium on day 4. For the initial round of screening, a final concentration of 10 μM was used for all drugs. Multiple drug concentrations were used for the second round of screening, including 0, 0.001, 0.01, 0.1, 1, and 10 μM. Duplicate wells were repeated for each concentration.

[1] = 0.01 μM (first column so headed), secondary screening of 87 hit compounds (Table S1)
[2] = 0.01 μM (second column so headed), secondary screening of 87 hit compounds (Table S1)
[3] = 0.1 μM, secondary screening of 87 hit compounds (Table S1)
[4] = 1 μM, secondary screening of 87 hit compounds (Table S1)
[5] = 10 μM, secondary screening of 87 hit compounds (Table S1)
[6] = 0.01 μM (first column so headed), third screening of 25 hit compounds (Table S2)
[7] = 0.01 μM (second column so headed), third screening of 25 hit compounds (Table S2)
[8] = 0.1 μM, third screening of 25 hit compounds (Table S2)
[9] = 1 μM, third screening of 25 hit compounds (Table S2)
[10] = 10 μM, third screening of 25 hit compounds (Table S2)

`O.O.O.O.O.O.O.O=C1N=C([O-])CN1/N=C/c1ccc(-c2ccc([N+](=O)[O-])cc2)o1.O=C1N=C([O-])CN1/N=C/c1ccc(-c2ccc([N+](=O)[O-])cc2)o1.[Na+].[Na+]` [Dantrolene (sodium hemiheptahydrate)] was tested, and the “Invasion rates (%) of each drug’s multiple concentrations (μM)” value (“Invasion rates (%)” below) [1] was 102.88%, the “Invasion rates (%)” value [2] was 101.64% and the “Invasion rates (%)” value [3] was 90.54%. The “Invasion rates (%)” value [4] was 82.27% and the “Invasion rates (%)” value [5] was 29.15%.
With `Cc1ncc([N+](=O)[O-])n1CC(C)O` (centres unmarked) [Secnidazole] the activity at 0.01 µM [1] was 94.7%, the activity at 0.01 µM [2] was 96.4% and the activity at 0.1 µM [3] was 89%. The activity at 1 µM [4] was 82.8% and the activity at 10 µM [5] was 4.4%.
Work on `CC1CCc2c(N3CCC(O)CC3)c(F)cc3c(=O)c(C(=O)O)cn1c23` (centres unmarked) [Nadifloxacin] yielded an activity at 0.01 µM [1] of 102%, an activity at 0.01 µM [2] of 104% and an activity at 0.1 µM [3] of 101%. The activity at 1 µM [4] was 100% and the activity at 10 µM [5] was 1.03%.
In the case of `C[C@H]1c2cccc(O)c2C(O)=C2C(=O)[C@]3(O)C(O)=C(C(N)=O)C(=O)[C@@H](N(C)C)[C@@H]3[C@@H](O)[C@@H]21` [Doxycycline (hyclate)], the “Invasion rates (%)” value [1] is reported as 91.64%, the “Invasion rates (%)” value [6] is reported as 101.94% and the “Invasion rates (%)” value [2] is reported as 100.52%. For the same compound, the “Invasion rates (%)” value [7] was 98.24%, the “Invasion rates (%)” value [3] was 74.92% and the “Invasion rates (%)” value [8] was 93.64%. For the same compound, the “Invasion rates (%)” value [4] was 3.13%, the “Invasion rates (%)” value [9] was 5.76% and the “Invasion rates (%)” value [5] was 1.59%. The “Invasion rates (%)” value [10] was 1.58%.
`Cc1nc(Nc2ncc(C(=O)Nc3c(C)cccc3Cl)s2)cc(N2CCN(CCO)CC2)n1.Cl` [Dasatinib (hydrochloride)] was tested, and the “Invasion rates (%)” value [1] was 54.32%, the “Invasion rates (%)” value [6] was 99.47% and the “Invasion rates (%)” value [2] was 60.68%. For the same compound, the “Invasion rates (%)” value [7] was 101.09%, the “Invasion rates (%)” value [3] was 53.75% and the “Invasion rates (%)” value [8] was 92.00%. For the same compound, the “Invasion rates (%)” value [4] was 49.82%, the “Invasion rates (%)” value [9] was 87.73% and the “Invasion rates (%)” value [5] was 38.63%. For the same compound, the “Invasion rates (%)” value [10] was 56.83%.
`CN(C)[C@@H]1C(O)=C(C(N)=O)C(=O)[C@@]2(O)C(O)=C3C(=O)c4c(O)cccc4[C@@](C)(O)[C@H]3C[C@@H]12.Cl` [Tetracycline (hydrochloride)] was tested, and the “Invasion rates (%)” value [1] was 84.87%, the “Invasion rates (%)” value [2] was 95.46% and the “Invasion rates (%)” value [3] was 83.74%. For the same compound, the “Invasion rates (%)” value [4] was 67.27% and the “Invasion rates (%)” value [5] was 2.14%.
`CC(C)C[C@H](NC(=O)CNC(=O)c1cc(Cl)ccc1Cl)B(O)O` [Ixazomib] showed an activity at 0.01 µM [1] of 35.2%, an activity at 0.01 µM [6] of 83.1% and an activity at 0.01 µM [2] of 76.3%. The activity at 0.01 µM [7] was 95.7%, the activity at 0.1 µM [3] was 22.3% and the activity at 0.1 µM [8] was 76.1%. The activity at 1 µM [4] was 3.86%, the activity at 1 µM [9] was 0.53% and the activity at 10 µM [5] was 1.01%. It also gave an activity at 10 µM [10] of 0.3%.
In the case of Daptomycin, the “Invasion rates (%)” value [1] is reported as 96.29%, the “Invasion rates (%)” value [2] is reported as 96.99% and the “Invasion rates (%)” value [3] is reported as 95.71%. The “Invasion rates (%)” value [4] was 88.47% and the “Invasion rates (%)” value [5] was 1.26%.
`COc1cccc2c1C(=O)c1c(O)c3c(c(O)c1C2=O)C[C@@](O)(C(=O)CO)C[C@@H]3O[C@H]1C[C@H](N)[C@H](O)[C@H](C)O1.Cl` [Doxorubicin (hydrochloride)] was tested, and the “Invasion rates (%)” value [1] was 93.34%, the “Invasion rates (%)” value [2] was 92.49% and the “Invasion rates (%)” value [3] was 89.01%. The “Invasion rates (%)” value [5] was 1.92%.
`C=CC(=O)Nc1cc(Nc2nccc(-c3cn(C)c4ccccc34)n2)c(OC)cc1N(C)CCN(C)C` [Osimertinib] showed an activity at 0.01 µM [1] of 89%, an activity at 0.01 µM [2] of 98.8% and an activity at 0.1 µM [3] of 86.4%. For the same compound, the activity at 1 µM [4] was 83.8% and the activity at 10 µM [5] was 5.6%.
Spiramycin was tested, and the “Invasion rates (%)” value [1] was 90.26%, the “Invasion rates (%)” value [2] was 91.77% and the “Invasion rates (%)” value [3] was 85.48%. The “Invasion rates (%)” value [4] was 80.28% and the “Invasion rates (%)” value [5] was 55.32%.
For `Cc1cc(Nc2ncc(Cl)c(Nc3ccccc3S(=O)(=O)C(C)C)n2)c(OC(C)C)cc1C1CCNCC1.Cl.Cl` [Ceritinib dihydrochloride], the “Invasion rates (%)” value [1] was 88.46%, the “Invasion rates (%)” value [2] was 86.07% and the “Invasion rates (%)” value [3] was 92.06%. The “Invasion rates (%)” value [4] was 86.82% and the “Invasion rates (%)” value [5] was 39.86%.
For `Cl.Cl.O=C1c2c(O)ccc(O)c2C(=O)c2c(NCCNCCO)ccc(NCCNCCO)c21` [Mitoxantrone (dihydrochloride)], the “Invasion rates (%)” value [1] was 88.48%, the “Invasion rates (%)” value [2] was 95.77% and the “Invasion rates (%)” value [3] was 89.03%. The “Invasion rates (%)” value [4] was 87.29% and the “Invasion rates (%)” value [5] was 31.96%.
For `COc1cccc2c1C(=O)c1c(O)c3c(c(O)c1C2=O)C[C@@](O)(C(C)=O)C[C@@H]3O[C@H]1C[C@H](N)[C@H](O)[C@H](C)O1.Cl` [Daunorubicin (Hydrochloride)], the “Invasion rates (%)” value [1] was 95.45%, the “Invasion rates (%)” value [2] was 98.71% and the “Invasion rates (%)” value [3] was 93.45%. The “Invasion rates (%)” value [4] was 64.89% and the “Invasion rates (%)” value [5] was 2.25%.
`Cn1cnc([N+](=O)[O-])c1Sc1ncnc2nc[nH]c12` [Azathioprine] showed an activity at 0.01 µM [1] of 85.2%, an activity at 0.01 µM [2] of 91.6% and an activity at 0.1 µM [3] of 80%. The activity at 1 µM [4] was 68.3% and the activity at 10 µM [5] was 33.5%.
With `CN(C)[C@@H]1C(O)=C(C(N)=O)C(=O)[C@@]2(O)C(O)=C3C(=O)c4c(O)cccc4[C@@](C)(O)[C@H]3[C@H](O)[C@@H]12` [Oxytetracycline] the activity at 0.01 µM [1] was 84.1%, the activity at 0.01 µM [2] was 91% and the activity at 0.1 µM [3] was 82.2%. The activity at 1 µM [4] was 71.3% and the activity at 10 µM [5] was 8.26%.
For `CCN1CCN(Cc2ccc(Nc3ncc(F)c(-c4cc(F)c5nc(C)n(C(C)C)c5c4)n3)nc2)CC1.CS(=O)(=O)O` [Abemaciclib (methanesulfonate)], the “Invasion rates (%)” value [1] was 93.33%, the “Invasion rates (%)” value [2] was 94.22% and the “Invasion rates (%)” value [3] was 93.89%. For the same compound, the “Invasion rates (%)” value [4] was 89.88% and the “Invasion rates (%)” value [5] was 47.24%.
With `CCCCCCCCCCCC[N+](C)(C)CCOc1ccccc1.[Br-]` [Domiphen (bromide)] the “Invasion rates (%)” value [1] was 89.87%, the “Invasion rates (%)” value [2] was 94.08% and the “Invasion rates (%)” value [3] was 85.67%. For the same compound, the “Invasion rates (%)” value [4] was 77.63% and the “Invasion rates (%)” value [5] was 66.00%.
